{"source": "patent US5776955A", "about": "“Use of unsubstituted and substituted n-(pyrrol-1-yl)pyridinamines as anticonvulsant agents” (Hoechst Marion Roussel, Inc., priority 1996, dated 1998)", "key": {"mice": {"tested_on": "mice", "test": "Supramaximal electroshock in mice (block of tonic seizure)", "type": "in vivo, mouse (male CD-1)", "conditions": "intraperitoneal, male CD-1 mice", "protocol": "This procedure is used as to predict anticonvulsant activity of a test compound in vivo by its ability to block a full tonic seizure induced by a supramaximal electroshock stimulation as an indication of efficacy in preventing grand mal seizures. Male CD-1 mice (Charles River) weighing 18-30 grams were housed in accordance with the \"NIH Guide to Care and Use of Laboratory Animals\" (National Institutes of Health Care Publication 85-23, revised 1985) with a 12 hour light/dark cycle and free access to food and water. On the day of testing, animals are brought to the laboratory and randomly assigned to groups of six for the time course experiments and to test groups of ten for the dose-response experiments. The apparatus used for the test was the Wahlquist Electroshock Stimulator (Model H), which has a power source of 120 volts ac. A current of 15.5 mA lasting for 300 msec was delivered by placing the terminals of the stimulator across the eyes of the animal. This stimulus results in a tonic seizure, defined as a brief period of hindlimb flexion followed by a prolonged period of hindlimb extension. […] Protection is calculated as a normalized percent inhibition relative to a vehicle treated control group. A time course is performed to determine the peak time of drug action and then a dose response performed at the peak time to determine drug potency. Mice are dosed in a randomized fashion using a total of 4 dose groups and one vehicle control group. The ED50 value and 95% confidence limits are calculated by a computerized Litchfield and Wilcoxon analysis. Drugs are prepared dissolved in distilled water and, if insoluble a drop of surfactant is added. Drugs are routinely administered intraperitoneally for this test and given in a dosage volume of 10 ml/kg."}, "membrane sodium channels": {"tested_on": "membrane sodium channels", "conditions": "Willow and Catterall, 1982; Olsen, 1986; cited from earlier work"}, "sodium channels": {"tested_on": "sodium channels", "conditions": "25 nM [^3 H]batrachotoxin, rat cortex vesicular preparation, 60 min, 25° C., pH 7.4; read-out: IC50, Inhibition of [^3 H]Batrachotoxin Binding"}}}
{"smiles": "CCCN(c1ccncc1F)n1cc(C)c2ccccc21.Cl", "note": "[N-(3-Fluoro-4-pyridinyl)-N-propyl-3-methyl-1H-indol-1-amine hydrochloride]", "values": [{"measurement": "percent inhibition (protection), supramaximal electroshock", "setting": "mice; 30 mpk", "result": 50, "unit": "%"}, {"measurement": "percent inhibition (protection), supramaximal electroshock", "setting": "mice; 60 mpk", "result": 50, "unit": "%"}]}
{"smiles": "CCCN(c1ccncc1)n1cc(C)c2ccccc21.O=C(O)/C=C\\C(=O)O", "note": "[3-Methyl-N-propyl-N-(4-pyridinyl)-1H-indol-1-amine maleate]", "values": [{"measurement": "ED50", "setting": "mice; Mus musculus, ip, at peak time of drug action, read-out: ED50, inhibition of supramaximal electroshock", "result": 14.4, "unit": "mg/kg"}]}
{"smiles": "NC(=O)N1c2ccccc2C=Cc2ccccc21", "note": "[Carbamazepine]", "values": [{"measurement": "allosteric inhibition of [^3 H]batrachotoxin binding", "setting": "membrane sodium channels", "result": "allosterically inhibit the binding of [^3 H]batrachotoxin to membrane sodium channels"}]}
{"smiles": "CCCN(c1ccncc1F)n1cc(C)c2cc(O)ccc21", "note": "[1-[(3-Fluoro-4-pyridinyl)propylamino]-3-methyl-1H-indol-5-ol]", "values": [{"measurement": "IC50", "setting": "sodium channels", "result": 19, "unit": "µM"}]}
